Measurements from ChEMBL document CHEMBL1201862, “PubChem BioAssay data set” (2004).
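Dose response: 5 concentrations. Exposure: 48 h. Format: 96-well plates. Endpoint: linear interpolation; highest concentration if not reached. GI50: concentration for 50% inhibition of growth.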 The source made the active and inactive calls. Cut-off read from the data, not from the text of the source: active = GI50 up to about 1.1 µM and inactive = higher.

Experiments:
Assay in all cases: DTP human tumour cell line panel, 48 h
HL-60 = system: HL-60
PC-3 = system: PC-3
MDA-MB-231 = system: MDA-MB-231
KM12 = system: KM12
SF-268 = system: SF-268
HCT-15 = system: HCT-15
UO-31 = system: UO-31
Malme-3M = system: Malme-3M
SK-MEL-28 = system: SK-MEL-28
SK-MEL-2 = system: SK-MEL-2
NCI-H226 = system: NCI-H226
SF-539 = system: SF-539
MDA-MB-435 = system: MDA-MB-435
NCI-H23 = system: NCI-H23
NCI/ADR-RES = system: NCI/ADR-RES

Compound	GI50 (HL-60)	GI50 (PC-3)	GI50 (MDA-MB-231)	GI50 (KM12)	GI50 (SF-268)	GI50 (HCT-15) [µM]	GI50 (UO-31)	GI50 (Malme-3M)	GI50 (SK-MEL-28)	GI50 (SK-MEL-2)	GI50 (NCI-H226)	GI50 (SF-539)	GI50 (MDA-MB-435)	GI50 (NCI-H23)	GI50 (NCI/ADR-RES)
CC(C)C1=CC23CCC4C(C)(C(=O)O)CCCC4(C)C2CC1C1C(=O)N(c2ccc(Cc4ccc(N5C(=O)C6C7CC8C9(C)CCCC(C)(C(=O)O)C9CCC8(C=C7C(C)C)C6C5=O)cc4)cc2)C(=O)C13 (centres undefined)	9.35 µM (inactive)	3.78 µM (inactive)	15.7 µM (inactive)	5.97 µM (inactive)	8.81 µM (inactive)	10.6	17.1 µM (inactive)	16.7 µM (inactive)	10.9 µM (inactive)	12 µM (inactive)	13.6 µM (inactive)	4.16 µM (inactive)	3.55 µM (inactive)	1.93 µM (inactive)	
[N-]=[N+]=NCc1nc(N)c2c3c(sc2n1)CCCC3		2.04 µM (inactive)	6.17 µM (inactive)	0.979 µM (active)	2.32 µM (inactive)	2.76	0.0532 µM (active)	1.55 µM (inactive)	7.16 µM (inactive)	9.38 µM (inactive)	2.14 µM (inactive)	1.6 µM (inactive)	4.25 µM (inactive)	1.3 µM (inactive)	1.99 µM (inactive)
Cc1c2c(n(CCc3ccccc3)c1C)N(C)N=C(C#N)S2(=O)=O		> 100 µM (inactive)	> 100 µM (inactive)	> 100 µM (inactive)	> 100 µM (inactive)	> 100	> 100 µM (inactive)		> 100 µM (inactive)	> 100 µM (inactive)	> 100 µM (inactive)	7.69 µM (inactive)	> 100 µM (inactive)	> 100 µM (inactive)	> 100 µM (inactive)
CCN(CC)C(=S)N/N=C(\C)c1cccc(C)n1	< 0.01 µM (active)	< 0.01 µM (active)	< 0.01 µM (active)	0.201 µM (active)	0.0593 µM (active)	< 0.0249	0.133 µM (active)	0.0365 µM (active)	0.308 µM (active)	2.2 µM (inactive)		0.239 µM (active)	0.377 µM (active)		< 0.01 µM (active)
Cn1nc(C(=O)N2CC(CCl)c3c2cc(N)c2ccccc32)cc1NC(=O)Nc1cc(C(=O)N2CC(CCl)c3c2cc(N)c2ccccc32)nn1C (centres undefined)		0.165 µM (active)	0.243 µM (active)	0.948 µM (active)	0.0275 µM (active)	44.3	14.1 µM (inactive)	0.21 µM (active)	0.108 µM (active)	0.13 µM (active)		0.016 µM (active)	0.219 µM (active)	0.0225 µM (active)	> 100 µM (inactive)
Cc1ccc(C(=O)N/N=C(\N=N\c2cccc([N+](=O)[O-])c2)c2ccc(N(CCC#N)CCC#N)cc2C)cc1	12.9 µM (inactive)	23.8 µM (inactive)	30.5 µM (inactive)	19.7 µM (inactive)	33.6 µM (inactive)	30.8	39.5 µM (inactive)	4.12 µM (inactive)	> 46.8 µM (inactive)	26.9 µM (inactive)		4.58 µM (inactive)	18.1 µM (inactive)	20.5 µM (inactive)	34.8 µM (inactive)
Cc1ccc(S(=O)(=O)N/N=C2/C3CCC(C3)C2c2ccccc2)cc1 (centres undefined)	> 100 µM (inactive)	> 100 µM (inactive)		> 100 µM (inactive)	> 100 µM (inactive)	> 100	> 100 µM (inactive)	> 100 µM (inactive)	> 100 µM (inactive)	> 100 µM (inactive)	> 100 µM (inactive)		> 100 µM (inactive)	> 100 µM (inactive)	> 100 µM (inactive)
